In ChEMBL document CHEMBL1201862, “PubChem BioAssay data set” (2004):
Calls of active or inactive are those of the source.

Legend:
[1] = inhibitors of HIV Env-driven cell fusion, dose response, cherry-pick (AID 652057); format: functional, cell-based
[2] = inhibitors of clade B AD8 Env fusion, dose response, cell-based, cherry-pick (AID 652062); format: functional;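 also: luciferase signal from cell-cell fusion driven by HIV-1 clade B AD8 Env; potency is for inhibitors of fusion seen as a drop in luminescence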
[3] = CEM21 lymphoblast cell cytotoxicity, dose response, cytotoxicity control for viral fusion inhibitor project, CellTiter-Glo luminescence, cherry-picked (AID 652042); format: functional, cell-based;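 also: potency for signal decrease meaning cytotoxicity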
[4] = target: T1, Nuclear receptor subfamily 0 group B member 1 (Homo sapiens, UniProt P51843); format: functional, cell-based;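 also: HEK293T cells transfected with SF-1 and DAX-1 plus StAR promoter luciferase reporter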
T1 sequence (P51843 whole entry): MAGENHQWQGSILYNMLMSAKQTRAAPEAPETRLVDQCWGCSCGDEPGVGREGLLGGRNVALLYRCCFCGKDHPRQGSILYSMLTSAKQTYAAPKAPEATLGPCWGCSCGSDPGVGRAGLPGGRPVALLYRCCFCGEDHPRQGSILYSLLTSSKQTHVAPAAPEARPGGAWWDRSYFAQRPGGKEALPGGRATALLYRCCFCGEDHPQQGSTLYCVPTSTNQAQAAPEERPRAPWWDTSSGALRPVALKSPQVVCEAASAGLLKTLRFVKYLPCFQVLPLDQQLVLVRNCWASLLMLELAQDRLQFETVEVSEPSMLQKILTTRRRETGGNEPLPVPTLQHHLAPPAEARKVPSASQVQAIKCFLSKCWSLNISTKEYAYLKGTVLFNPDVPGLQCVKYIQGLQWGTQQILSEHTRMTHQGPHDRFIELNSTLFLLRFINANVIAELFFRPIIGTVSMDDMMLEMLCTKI

[5] = cells; format: functional, cell-based
[6] = target: T2, DNA repair protein RAD52 homolog (Homo sapiens, UniProt P43351); format: functional, biochemical
T2 sequence (P43351 whole entry): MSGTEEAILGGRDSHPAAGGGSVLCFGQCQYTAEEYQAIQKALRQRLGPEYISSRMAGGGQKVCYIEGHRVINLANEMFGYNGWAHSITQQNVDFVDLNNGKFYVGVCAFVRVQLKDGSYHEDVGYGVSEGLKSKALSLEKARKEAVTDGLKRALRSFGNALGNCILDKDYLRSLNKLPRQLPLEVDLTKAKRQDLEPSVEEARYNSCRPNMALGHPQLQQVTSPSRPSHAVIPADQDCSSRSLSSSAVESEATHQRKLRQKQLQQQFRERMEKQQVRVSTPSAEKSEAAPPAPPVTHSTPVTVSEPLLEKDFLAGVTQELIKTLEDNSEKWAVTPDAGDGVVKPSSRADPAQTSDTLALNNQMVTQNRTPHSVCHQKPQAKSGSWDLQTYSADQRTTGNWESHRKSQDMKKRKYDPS

[7] = MC4R antagonists, dose response, counter-screen for LGR2 antagonist project, cell-based, plate reader, cherry pick (AID 743444); format: functional;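 also: transfected HEK 293 cells stimulated with alpha-MSH peptide; potency of inhibitors of the alpha-MSH evoked signal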
[8] = A549 cell cytotoxicity, dose response, cytotoxicity control, plate reader, cherry-pick, antagonist series (AID 743412); format: functional, cell-based
[9] = target: T3, Caspase-3 (Homo sapiens, UniProt P42574); format: functional;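 also: Dose-response selectivity test against caspase-3 for candidate inhibitors of sentrin-specific proteases (SENPs)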
T3 sequence (P42574 whole entry): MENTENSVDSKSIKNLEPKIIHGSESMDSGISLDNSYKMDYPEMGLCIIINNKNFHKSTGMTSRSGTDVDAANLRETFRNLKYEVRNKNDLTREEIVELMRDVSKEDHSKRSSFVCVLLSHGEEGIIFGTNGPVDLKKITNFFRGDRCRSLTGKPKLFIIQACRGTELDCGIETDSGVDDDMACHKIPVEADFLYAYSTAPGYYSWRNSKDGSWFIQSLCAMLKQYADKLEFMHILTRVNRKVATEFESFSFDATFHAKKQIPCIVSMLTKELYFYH

[10] = target: T4, Sentrin-specific protease 8 (Homo sapiens, UniProt Q96LD8); format: functional;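 also: luminescence read-out of SENP8 inhibition, dose-response confirmation following an ultra-high-throughput screen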
T4 sequence (Q96LD8 whole entry): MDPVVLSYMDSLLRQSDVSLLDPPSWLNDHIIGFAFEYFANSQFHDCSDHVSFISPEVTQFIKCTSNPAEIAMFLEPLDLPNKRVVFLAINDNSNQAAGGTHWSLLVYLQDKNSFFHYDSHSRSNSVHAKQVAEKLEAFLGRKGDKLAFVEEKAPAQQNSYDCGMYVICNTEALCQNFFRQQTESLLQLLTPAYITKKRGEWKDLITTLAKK

[11] = HEK293 cell cytotoxicity, dose response, cytotoxicity control, plate reader, cherry-picked samples (AID 743446); format: functional, cell-based
[12] = target: T5, Sentrin-specific protease 7 (Homo sapiens, UniProt Q9BQF6); format: functional;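 also: Luminescence-based dose-response confirmation of ultra-high-throughput screening hits, measuring inhibition of SENP7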
T5 sequence (Q9BQF6 whole entry): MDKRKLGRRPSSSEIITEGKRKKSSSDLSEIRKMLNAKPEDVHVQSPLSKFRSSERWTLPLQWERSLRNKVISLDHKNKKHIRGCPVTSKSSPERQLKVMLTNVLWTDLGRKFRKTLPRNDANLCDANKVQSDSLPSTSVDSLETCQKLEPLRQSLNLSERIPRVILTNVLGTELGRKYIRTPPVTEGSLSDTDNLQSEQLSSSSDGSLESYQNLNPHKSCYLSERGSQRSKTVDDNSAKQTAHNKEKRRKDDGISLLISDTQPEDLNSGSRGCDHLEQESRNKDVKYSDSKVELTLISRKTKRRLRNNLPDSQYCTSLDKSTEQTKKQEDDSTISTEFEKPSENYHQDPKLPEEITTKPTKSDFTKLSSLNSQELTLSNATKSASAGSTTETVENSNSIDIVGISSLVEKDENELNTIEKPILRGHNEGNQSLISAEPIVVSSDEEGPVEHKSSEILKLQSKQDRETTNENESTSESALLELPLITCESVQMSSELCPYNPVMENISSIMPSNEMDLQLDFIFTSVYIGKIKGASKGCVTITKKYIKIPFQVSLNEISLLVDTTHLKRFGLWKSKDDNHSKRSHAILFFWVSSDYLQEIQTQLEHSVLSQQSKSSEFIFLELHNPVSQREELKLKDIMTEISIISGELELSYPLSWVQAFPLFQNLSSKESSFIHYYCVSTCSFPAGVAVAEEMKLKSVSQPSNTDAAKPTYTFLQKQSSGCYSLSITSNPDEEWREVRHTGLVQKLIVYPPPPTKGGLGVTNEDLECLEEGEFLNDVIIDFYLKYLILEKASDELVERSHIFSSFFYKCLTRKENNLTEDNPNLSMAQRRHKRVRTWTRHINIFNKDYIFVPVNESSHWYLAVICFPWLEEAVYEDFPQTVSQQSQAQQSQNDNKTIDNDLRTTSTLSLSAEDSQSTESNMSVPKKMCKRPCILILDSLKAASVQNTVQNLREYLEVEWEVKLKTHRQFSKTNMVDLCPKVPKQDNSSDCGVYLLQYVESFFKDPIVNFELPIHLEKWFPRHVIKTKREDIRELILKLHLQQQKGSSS

[13] = target: T6, Sentrin-specific protease 6 (Homo sapiens, UniProt Q9GZR1); format: functional;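 also: Luminescence-based dose-response confirmatory assay of SENP6 inhibition, following up an ultra-high-throughput screen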
T6 sequence (Q9GZR1 whole entry): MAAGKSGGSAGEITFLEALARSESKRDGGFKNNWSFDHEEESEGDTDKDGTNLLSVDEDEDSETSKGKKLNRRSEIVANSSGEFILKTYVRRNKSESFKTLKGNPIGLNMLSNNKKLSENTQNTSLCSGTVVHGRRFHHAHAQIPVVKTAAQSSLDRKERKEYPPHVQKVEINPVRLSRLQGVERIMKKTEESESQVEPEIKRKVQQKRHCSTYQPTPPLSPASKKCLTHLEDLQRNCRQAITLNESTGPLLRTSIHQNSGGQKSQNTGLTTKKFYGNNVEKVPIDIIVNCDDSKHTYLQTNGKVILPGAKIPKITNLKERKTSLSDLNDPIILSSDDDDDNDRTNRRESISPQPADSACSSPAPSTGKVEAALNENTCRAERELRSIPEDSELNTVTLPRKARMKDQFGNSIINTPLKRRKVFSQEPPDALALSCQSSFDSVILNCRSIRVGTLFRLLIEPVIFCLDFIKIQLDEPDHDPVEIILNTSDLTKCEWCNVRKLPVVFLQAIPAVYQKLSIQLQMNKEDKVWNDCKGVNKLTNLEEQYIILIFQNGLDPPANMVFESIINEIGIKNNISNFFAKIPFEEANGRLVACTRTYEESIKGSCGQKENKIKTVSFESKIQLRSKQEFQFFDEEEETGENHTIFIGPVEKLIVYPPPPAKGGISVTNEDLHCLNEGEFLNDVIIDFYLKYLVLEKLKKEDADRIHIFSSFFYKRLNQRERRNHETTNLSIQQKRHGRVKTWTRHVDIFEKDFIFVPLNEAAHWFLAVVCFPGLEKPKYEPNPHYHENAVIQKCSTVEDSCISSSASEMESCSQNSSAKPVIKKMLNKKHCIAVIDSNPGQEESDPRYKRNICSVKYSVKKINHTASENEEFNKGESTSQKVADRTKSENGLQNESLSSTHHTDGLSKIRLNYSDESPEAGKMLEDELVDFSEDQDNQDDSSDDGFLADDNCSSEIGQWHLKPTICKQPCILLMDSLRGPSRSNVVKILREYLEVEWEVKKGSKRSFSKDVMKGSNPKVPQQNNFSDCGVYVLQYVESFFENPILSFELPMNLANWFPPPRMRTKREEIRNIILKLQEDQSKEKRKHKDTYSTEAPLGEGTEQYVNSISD

[14] = HepG2 cell cytotoxicity, dose response, cytotoxicity control, plate reader, cherry-pick, antagonist series (AID 743416); format: functional, cell-based
[15] = LGR2 antagonists, dose response, cell-based, HEK293, CRE-luciferase reporter, cherry pick, set 2 (AID 743343); format: functional;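 also: transfected cells were stimulated with diluted bursicon conditioned medium after compound addition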
[16] = target: T7, Beta-lactamase (Pseudomonas aeruginosa, UniProt Q79MP6); test: IMP-1 metallo-beta-lactamase inhibitors, dose response, selectivity assay for VIM-2 inhibitor project, biochemical, epi-absorbance (AID 1920)
[17] = target: T7, Beta-lactamase; test: […] counterscreen for selective VIM-2 inhibitors: dose response biochemical high throughput screening assay to identify inhibitors of IMP-1 metallo-beta-lactamase.
[18] = target: Beta-lactamase (Salmonella choleraesuis (strain SC-B67), UniProt Q5J463); test: Epi-absorbance-based counterscreen for selective VIM-2 inhibitors: dose response biochemical high throughput screening assay to identify inhibitors of TEM-1 serine-beta-lactamase.
[19] = ZM109 Env clade C HIV-1 fusion inhibitors, dose response, HeLa effector, CEM target cells, luciferase, cherry-pick (AID 652058); format: functional, cell-based
[20] = off-target signal loss in HeLa-CEM21 co-culture – HeLa F-luc CTL cells, cherry-picked, counter-screen for HIV-1 Env fusion inhibitor project, dose response (AID 652040); format: functional, cell-based;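 also: potency for signal decrease marking cytotoxic or nonspecific inhibition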
[21] = Counterscreen for activators of the function of SWI/SNF related, matrix associated, actin dependent regulator of chromatin, subfamily a, member 2 (SMARCA2, BRM): Luminescence-based cell-based high throughput dose response assay to identify non-selective compounds using the VP16 reporter assay.; format: functional
[22] = target: Photoreceptor-specific nuclear receptor (Homo sapiens, UniProt Q9Y5X4); format: functional, cell-based;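 also: CHO-S cells with Gal4-NCOR and VP16-NR2E3 two-hybrid luciferase reporter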
[23] = target: SWI/SNF-related matrix-associated actin-dependent regulator of chromatin subfamily A member 2 (Homo sapiens, UniProt P51531); test: Luminescence-based cell-based high throughput dose response assay to identify activators of the function of SWI/SNF related, matrix associated, actin dependent regulator of chromatin, subfamily a, member 2 (SMARCA2, BRM).; format: functional
[24] = target: Luciferin 4-monooxygenase (Photinus pyralis, UniProt P08659); test: firefly luciferase enzyme inhibitors, dose response, biochemical, luminescence (AID 1891)
[25] = Luminescence Cell-Based Dose Confirmation HTS to Identify Inhibitors of Platelet Dense Granule Release. [Related pubchem assays: 1663 (Primary HTS), 1678 (Summary of Project)]; format: functional

T7 sequence (Q79MP6 whole entry): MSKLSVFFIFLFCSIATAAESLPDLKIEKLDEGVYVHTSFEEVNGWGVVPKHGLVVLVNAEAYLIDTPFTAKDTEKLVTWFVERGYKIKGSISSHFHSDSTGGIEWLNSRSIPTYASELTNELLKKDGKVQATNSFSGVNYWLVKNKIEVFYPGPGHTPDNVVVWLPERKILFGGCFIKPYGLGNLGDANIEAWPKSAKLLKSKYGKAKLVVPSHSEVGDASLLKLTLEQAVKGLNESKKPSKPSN
Chain of Beta-lactamase (Salmonella choleraesuis (strain SC-B67), UniProt Q5J463) (Q5J463 whole entry, the tested form may be a part): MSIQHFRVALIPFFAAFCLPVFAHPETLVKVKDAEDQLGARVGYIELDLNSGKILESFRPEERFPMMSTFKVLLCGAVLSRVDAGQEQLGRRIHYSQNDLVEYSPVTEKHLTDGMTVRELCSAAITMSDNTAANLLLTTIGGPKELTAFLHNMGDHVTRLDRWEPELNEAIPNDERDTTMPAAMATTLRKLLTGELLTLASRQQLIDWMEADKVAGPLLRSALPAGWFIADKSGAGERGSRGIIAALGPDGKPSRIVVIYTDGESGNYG
Chain of SWI/SNF-related matrix-associated actin-dependent regulator of chromatin subfamily A member 2 (P51531 whole entry): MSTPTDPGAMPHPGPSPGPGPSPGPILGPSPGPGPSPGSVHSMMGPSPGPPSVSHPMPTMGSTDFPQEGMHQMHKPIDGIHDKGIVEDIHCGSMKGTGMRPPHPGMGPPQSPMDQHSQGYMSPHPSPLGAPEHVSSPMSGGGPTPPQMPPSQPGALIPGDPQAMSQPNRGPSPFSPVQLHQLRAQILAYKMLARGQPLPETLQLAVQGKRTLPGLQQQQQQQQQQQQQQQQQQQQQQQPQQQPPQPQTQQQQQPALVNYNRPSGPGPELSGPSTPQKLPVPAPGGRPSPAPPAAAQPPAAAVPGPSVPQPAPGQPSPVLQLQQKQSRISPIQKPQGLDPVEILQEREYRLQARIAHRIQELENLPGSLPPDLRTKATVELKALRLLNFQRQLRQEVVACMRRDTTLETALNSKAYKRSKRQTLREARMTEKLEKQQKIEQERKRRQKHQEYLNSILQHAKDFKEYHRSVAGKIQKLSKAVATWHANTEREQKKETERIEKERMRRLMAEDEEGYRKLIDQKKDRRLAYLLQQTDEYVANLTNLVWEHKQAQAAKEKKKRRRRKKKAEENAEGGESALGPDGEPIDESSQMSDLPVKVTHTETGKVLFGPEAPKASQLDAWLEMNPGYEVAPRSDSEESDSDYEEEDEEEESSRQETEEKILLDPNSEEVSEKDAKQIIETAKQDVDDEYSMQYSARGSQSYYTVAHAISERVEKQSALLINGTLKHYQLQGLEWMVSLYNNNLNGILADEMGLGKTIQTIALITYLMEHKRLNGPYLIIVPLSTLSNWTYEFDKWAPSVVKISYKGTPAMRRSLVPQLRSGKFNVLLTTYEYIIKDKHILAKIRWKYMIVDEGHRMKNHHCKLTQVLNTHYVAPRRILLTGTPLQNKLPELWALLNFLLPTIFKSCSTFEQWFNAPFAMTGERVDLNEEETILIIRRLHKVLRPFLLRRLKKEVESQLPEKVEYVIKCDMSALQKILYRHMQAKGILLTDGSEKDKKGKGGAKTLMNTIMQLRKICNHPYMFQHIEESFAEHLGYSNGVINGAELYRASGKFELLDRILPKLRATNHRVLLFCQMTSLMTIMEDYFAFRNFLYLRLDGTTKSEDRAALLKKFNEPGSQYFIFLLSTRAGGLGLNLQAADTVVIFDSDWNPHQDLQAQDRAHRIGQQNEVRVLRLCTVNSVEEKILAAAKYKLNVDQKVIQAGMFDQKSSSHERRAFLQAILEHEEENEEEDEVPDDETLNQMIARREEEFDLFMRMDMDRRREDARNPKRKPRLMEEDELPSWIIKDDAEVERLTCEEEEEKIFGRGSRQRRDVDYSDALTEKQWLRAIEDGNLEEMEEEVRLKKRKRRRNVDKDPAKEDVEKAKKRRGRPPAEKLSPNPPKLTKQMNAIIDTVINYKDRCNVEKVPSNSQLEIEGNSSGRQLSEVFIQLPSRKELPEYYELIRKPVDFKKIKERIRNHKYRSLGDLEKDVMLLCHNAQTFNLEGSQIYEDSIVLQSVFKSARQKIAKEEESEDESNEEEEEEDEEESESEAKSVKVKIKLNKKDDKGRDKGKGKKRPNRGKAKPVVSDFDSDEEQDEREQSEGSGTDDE
Chain of Luciferin 4-monooxygenase (P08659 whole entry): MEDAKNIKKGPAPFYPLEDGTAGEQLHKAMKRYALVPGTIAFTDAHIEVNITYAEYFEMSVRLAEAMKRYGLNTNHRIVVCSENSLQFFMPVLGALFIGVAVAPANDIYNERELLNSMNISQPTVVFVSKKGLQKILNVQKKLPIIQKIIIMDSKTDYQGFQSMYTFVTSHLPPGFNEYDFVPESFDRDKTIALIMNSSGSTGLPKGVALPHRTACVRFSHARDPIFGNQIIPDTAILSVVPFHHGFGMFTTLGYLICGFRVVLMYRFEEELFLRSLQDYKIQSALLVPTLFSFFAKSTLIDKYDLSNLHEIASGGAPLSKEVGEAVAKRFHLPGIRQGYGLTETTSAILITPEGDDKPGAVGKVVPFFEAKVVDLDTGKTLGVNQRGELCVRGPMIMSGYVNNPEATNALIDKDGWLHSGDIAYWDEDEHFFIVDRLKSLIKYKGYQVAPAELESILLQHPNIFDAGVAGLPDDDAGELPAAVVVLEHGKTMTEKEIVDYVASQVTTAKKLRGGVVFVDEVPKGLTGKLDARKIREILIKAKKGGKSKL
Chain of Photoreceptor-specific nuclear receptor (Q9Y5X4 whole entry, the tested form may be a part): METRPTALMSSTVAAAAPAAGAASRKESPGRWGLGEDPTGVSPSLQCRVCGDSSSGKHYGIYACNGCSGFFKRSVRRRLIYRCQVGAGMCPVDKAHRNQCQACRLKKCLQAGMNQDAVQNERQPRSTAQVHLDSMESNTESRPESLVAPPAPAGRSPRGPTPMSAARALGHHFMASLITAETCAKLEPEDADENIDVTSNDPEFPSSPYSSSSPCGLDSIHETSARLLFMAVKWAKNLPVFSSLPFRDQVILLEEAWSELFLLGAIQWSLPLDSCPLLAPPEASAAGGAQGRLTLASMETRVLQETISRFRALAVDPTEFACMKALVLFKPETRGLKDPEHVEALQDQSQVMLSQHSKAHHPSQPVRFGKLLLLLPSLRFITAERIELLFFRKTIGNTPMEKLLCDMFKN

Cn1c(=O)c2c(nc(NCCc3ccccc3)n2Cc2ccccc2)n(C)c1=O
AC50 [1]: 30.8 µM (active) | AC50 [2]: 12 µM (active) | AC50 [3]: 49.1 µM (active)

O=C(Nc1ccccc1Cl)NC1CCCCCCC1
IC50 [4]: > 67.5 µM (inactive) | IC50 [5]: > 67.5 µM (inactive)

COc1ccc(/C=C2\Sc3ccc(C(=O)NCCCN4CCCC4)cc3N(C)C2=O)cc1OC
IC50 [4]: > 67.5 µM (inactive) | AC50 [6]: 3.69 µM (active) | IC50 [5]: > 67.5 µM (inactive)

CCOc1cccc(C(=O)Nc2ccc3ccccc3c2)c1
AC50 [7]: 5.43 µM (active) | AC50 [8]: > 52 µM (inactive) | IC50 [9]: 3.54 µM (active) | IC50 [10]: 4.95 µM (active) | AC50 [11]: > 52 µM (inactive) | IC50 [12]: 1.46 µM (active) | IC50 [13]: 2.37 µM (active) | AC50 [14]: > 52 µM (inactive) | AC50 [15]: 5.95 µM (active)

Cc1cc(OCC(=O)N2CCC[C@@H]2C(=O)O)c2c(C)c(C)c(=O)oc2c1
IC50 [16]: > 59.6 µM (inactive) | IC50 [17]: > 59.6 µM (inactive) | IC50 [18]: > 59.6 µM (inactive)

Cc1c(OCC(=O)N2CCC[C@@H]2C(=O)O)ccc2c3c(c(=O)oc12)CCC3
IC50 [16]: > 59.6 µM (inactive) | IC50 [17]: > 59.6 µM (inactive) | IC50 [18]: > 59.6 µM (inactive)

C/C=C1\COC(C(=O)NCc2cccc(OC)c2OC)(C(F)(F)F)C=C1C=C1CCCCC1 (stereo not drawn)
AC50 [19]: 9 µM (active) | AC50 [20]: 50.1 µM (active) | AC50 [1]: 19.8 µM (active) | AC50 [2]: 35.6 µM (active) | AC50 [3]: 22.3 µM (active)

COc1cccc(N2CCN(c3nc(O)cc(-c4ccccc4C)n3)CC2)c1
EC50 [21]: > 91.2 µM (inactive) | IC50 [22]: 0.0942 µM (active) | EC50 [23]: > 91.2 µM (inactive)

COc1ccc(-n2nnnc2C(c2cccc(OC)c2OC)N2CCC(n3c(O)nc4ccccc43)CC2)cc1 (stereo not drawn)
AC50 [7]: 21.5 µM (active) | AC50 [8]: 25.6 µM (active) | AC50 [11]: 17.6 µM (active) | AC50 [14]: > 52 µM (inactive) | AC50 [15]: 17.6 µM (active)

O=C(O)Cn1cccc1C(=O)c1ccccc1
IC50 [16]: > 59.6 µM (inactive) | IC50 [17]: > 59.6 µM (inactive) | IC50 [18]: > 59.6 µM (inactive)

C=C[C@@]1(C)CC(=O)[C@]2(O)[C@@]3(C)[C@@H](O)CCC(C)(C)[C@@H]3[C@H](O)[C@H](OC(C)=O)[C@@]2(C)O1 [COLFORSIN]
IC50 [4]: 1.73 µM (active) | EC50 [24]: > 112 µM (not active) | EC50 [25]: < 0.088 µM (active) | IC50 [5]: > 67.5 µM (inactive)
